Assay [1] concerns JB6 P+ cells. The assay can be described thus: Anchorage-independent cell growth assay (EGF-induced neoplastic transformation). To be noted: EGF 10 ng/ml, different concentrations. In kind it is cell-based, mouse. As to the method:
Cells were exposed to EGF (10 ng/ml) and treated with increasing concentrations of compound 1. Representative photographs are shown and data are presented as mean values±S.D. from triplicate experiments. […] Cells were treated with different concentrations of compound 1 for several days and cell proliferation was determined by a crystal violet staining assay.
Cells (8×10^3/well) were seeded into 6-well plates with 0.3% Basal Medium Eagle agar containing 10% FBS with epidermal growth factor (EGF, 10 ng/ml) and different concentrations of compound 1 and then cultured for 1 to 2 weeks. Colonies were scored under a microscope using the Image-Pro PLUS (v6.) computer software program (Media Cybernetics. Rockville, Md.).

The subject of assay [2] is AP-1 activity in A431 cells. The assay can be described thus: AP-1 luciferase reporter assay in control or TOPK knockdown cells. It counts as cell-based, human. As to the method: The cells were cultured, treated for 4 h with different concentrations of compound 1 and then exposed to SUV (60 kJ UVA/m^2 and 2.9 kJ UVB/m^2), followed by an additional 15-minute incubation. Cells were harvested and the levels of phosphorylated and total proteins were determined by Western blot analysis with specific antibodies as indicated. […] The cells were cultured and treated with different concentrations of compound 1 for 24 h. Cells were harvested and the levels of phosphorylated and total proteins were determined by Western blot analysis with specific antibodies as indicated. […] For the luciferase assay, JB6 P+ cells stably transfected with an AP-1 luciferase reporter plasmid were cultured. […] Luciferase activity was measured and AP-1 activity is expressed relative to control cells without SUV treatment. […] Luciferase and 3-galactosidase activities were measured using reagents included in the reporter assay system (right). […] Significant differences were evaluated using one-way ANOVA and the asterisks (*) indicate a significant effect (*, p<0.05; **, p<0.001; ***, p<0.0001). […]
Stable control or TOPK knockdown cells were co-transfected with 100 ng of the AP-1 luciferase reporter plasmid and 50 ng of an internal control […] plasmid. […] Luciferase and β-galactosidase activities were measured using the Luminoskan Ascent and Multiskan MCC (Labsystems), respectively. […]
A general note: In a reporter assay the amount or activity of a reporter protein is the signal.

Turning to `O=C1Nc2ccc(C34CC5CC(CC(C5)C3)C4)cc2C1=NO` [compound 1, 5-(adamantan-1-yl)-3-(hydroxyimino)indolin-2-one], the EGF-induced colony formation entry in assay [1] is “attenuated”. Besides, the AP-1 activity entry is on record as “only slightly affected” in assay [2] (A431 TOPK knockdown group, highest concentration (5 μM)) and “inhibited by compound 1 in a dose-dependent manner” in assay [2] (A431 control group, 24 h).

Values taken from patent US10487054B2, “Therapeutic compounds” (REGENTS OF THE UNIVERSITY OF MINNESOTA, priority 2017, dated 2019).
